Laboratory results as given in ChEMBL document CHEMBL5614428, “Synthesis and antibacterial activities of heterocyclic ring-fused 20(S)-protopanaxadiol derivatives” (Bioorg Med Chem, 2024).
≈ marks a conversion by molar mass, not a printed value. Calls of active or inactive are those of the source. No cut-off for these calls is given here.

Experiments:
[1] = system: Staphylococcus aureus; test: Antibacterial activity against methicillin-resistant Staphylococcus aureus USA300 assessed as fold increase in inhibition of bacterial growth incubated for 18 hrs by two fold serial dilution assay relative to (S)-4-((1S,3aR,3bR,5aR,13aR,13bR,15R,15aR)-15-hydroxy-3a,3b,6,6,13a-pentamethyl-2,3,3a,3b,4,5,5a,6,13,13a,13b,14,15,15a-tetradecahydro-1H-cyclopenta[5,6]naphtho[1,2-b]phenazin-1-yl)pentane-1,4-diol; type: functional
[2] = system: Staphylococcus aureus; test: Antibacterial activity against methicillin-resistant Staphylococcus aureus NRS-100 assessed as inhibition of bacterial growth incubated for 18 hrs by two fold serial dilution assay; type: functional
[3] = system: Staphylococcus aureus; test: Antibacterial activity against methicillin-resistant Staphylococcus aureus XJ036 assessed as inhibition of bacterial growth incubated for 18 hrs by two fold serial dilution assay; type: functional
[4] = system: Staphylococcus aureus; test: Antibacterial activity against methicillin-resistant Staphylococcus aureus NRS-108 assessed as inhibition of bacterial growth incubated for 18 hrs by two fold serial dilution assay; type: functional
[5] = system: Staphylococcus aureus; test: Antibacterial activity against methicillin-resistant Staphylococcus aureus XJ017 assessed as inhibition of bacterial growth incubated for 18 hrs by two fold serial dilution assay; type: functional
[6] = system: Staphylococcus aureus; test: Antibacterial activity against methicillin-resistant Staphylococcus aureus NRS-271 assessed as inhibition of bacterial growth incubated for 18 hrs by two fold serial dilution assay; type: functional
[7] = system: Staphylococcus aureus; test: Antibacterial activity against Staphylococcus aureus Newman assessed as inhibition of bacterial growth incubated for 18 hrs by two fold serial dilution assay; type: functional
[8] = system: Staphylococcus aureus; test: Antibacterial activity against methicillin-resistant Staphylococcus aureus NRS-1 assessed as inhibition of bacterial growth incubated for 18 hrs by two fold serial dilution assay; type: functional
[9] = system: Staphylococcus aureus; test: Antibacterial activity against methicillin-resistant Staphylococcus aureus USA300 assessed as inhibition of bacterial growth incubated for 18 hrs by two fold serial dilution assay; type: functional
[10] = system: Staphylococcus aureus; test: Antibacterial activity against methicillin-resistant Staphylococcus aureus NRS-70 assessed as inhibition of bacterial growth incubated for 18 hrs by two fold serial dilution assay; type: functional
[11] = system: Staphylococcus aureus; test: Antibacterial activity against methicillin-resistant Staphylococcus aureus USA300 infected in zebrafish assessed as increase in survival rate at 25 mg/kg,ip administration measured for 5 days; type: functional, organism-based; conditions: time 5.0 day
[12] = system: Staphylococcus aureus; test: Antibacterial activity against Staphylococcus aureus Newman assessed as fold increase in inhibition of bacterial growth incubated for 18 hrs by two fold serial dilution assay relative to (S)-4-((1S,3aR,3bR,5aR,12aR,12bR,14R,14aR)-14-hydroxy-3a,3b,6,6,12a-pentamethyl-1,2,3,3a,3b,4,5,5a,6,7,12,12a,12b,13,14,14a-hexadecahydrocyclopenta[5,6]naphtho[2,1-b]carbazol-1-yl)pentane-1,4-diol; type: functional
[13] = Toxicity in Zebrafish at 25 to 75 mg/kg,ip administration measured upto 120 hrs; type: organism-based, Danio rerio; conditions: in vivo, dose 25-75 mg/kg
[14] = system: Staphylococcus aureus; test: Antibacterial activity against methicillin-resistant Staphylococcus aureus USA300 infected in zebrafish assessed as increase in survival rate at 50 mg/kg,ip administration measured for 5 days relative to Vancomycin; type: functional, organism-based; conditions: time 5.0 day

For `CC1(C)c2nc3ccccc3nc2C[C@]2(C)[C@H]3C[C@@H](O)[C@@H]4[C@@H]([C@@](C)(O)CCC(N)=O)CC[C@@]4(C)[C@]3(C)CC[C@@H]12`, the “fold change (FC)” value [1] was 2, the MIC [2] was 4 µg/mL (≈ 7.49 µM) and the MIC [3] was 4 µg/mL (≈ 7.49 µM). It also gave an MIC [4] of 4 µg/mL (≈ 7.49 µM), an MIC [5] of 4 µg/mL (≈ 7.49 µM) and an MIC [6] of 4 µg/mL (≈ 7.49 µM). The MIC [7] was 4 µg/mL (≈ 7.49 µM), the MIC [8] was 4 µg/mL (≈ 7.49 µM) and the MIC [9] was 4 µg/mL (≈ 7.49 µM). The MIC [10] was 4 µg/mL (≈ 7.49 µM).

`CC1(C)c2nc3ccccc3nc2C[C@]2(C)[C@H]3C[C@@H](O)[C@@H]4[C@@H]([C@@](C)(O)CCC(=O)Nc5nccs5)CC[C@@]4(C)[C@]3(C)CC[C@@H]12` gave an MIC [2] of 4 µg/mL (≈ 6.48 µM), an MIC [3] of 1 µg/mL (≈ 1.62 µM) and an MIC [4] of 2 µg/mL (≈ 3.24 µM). The Activity [11] was “Active”, the “fold change (FC)” value [12] was 4 and the Activity [13] was “Non-Toxic”. For the same molecule, the MIC [5] was 0.5 µg/mL (≈ 0.811 µM), the MIC [6] was 1 µg/mL (≈ 1.62 µM) and the Activity [14] was “Active”. The MIC [7] was 1 µg/mL (≈ 1.62 µM), the MIC [8] was 1 µg/mL (≈ 1.62 µM) and the MIC [9] was 1 µg/mL (≈ 1.62 µM). For the same molecule, the MIC [10] was 1 µg/mL (≈ 1.62 µM).

For `CC1(C)c2nc3ccccc3nc2C[C@]2(C)[C@H]3C[C@@H](O)[C@@H]4[C@@H]([C@@](C)(O)CCC(=O)Nc5cccnc5)CC[C@@]4(C)[C@]3(C)CC[C@@H]12`, the MIC [2] was 8 µg/mL (≈ 13.1 µM), the MIC [3] was 4 µg/mL (≈ 6.55 µM) and the MIC [4] was 8 µg/mL (≈ 13.1 µM). The MIC [5] was 16 µg/mL (≈ 26.2 µM), the MIC [6] was 16 µg/mL (≈ 26.2 µM) and the MIC [7] was 2 µg/mL (≈ 3.27 µM). For the same molecule, the MIC [8] was greater than 64 µg/mL, the MIC [9] was 4 µg/mL (≈ 6.55 µM) and the MIC [10] was 8 µg/mL (≈ 13.1 µM).

`CC1(C)c2nc3ccccc3nc2C[C@]2(C)[C@H]3C[C@@H](O)[C@@H]4[C@@H]([C@@](C)(O)CCC(=O)Nc5cnccn5)CC[C@@]4(C)[C@]3(C)CC[C@@H]12` gave an MIC [2] of 4 µg/mL (≈ 6.54 µM), an MIC [3] of 4 µg/mL (≈ 6.54 µM) and an MIC [4] of 4 µg/mL (≈ 6.54 µM). For the same molecule, the MIC [5] was 16 µg/mL (≈ 26.2 µM), the MIC [6] was 8 µg/mL (≈ 13.1 µM) and the MIC [7] was 2 µg/mL (≈ 3.27 µM). For the same molecule, the MIC [8] was greater than 64 µg/mL, the MIC [9] was 2 µg/mL (≈ 3.27 µM) and the MIC [10] was 4 µg/mL (≈ 6.54 µM).

Molecule `CCNC(=O)CC[C@](C)(O)[C@H]1CC[C@]2(C)[C@@H]1[C@H](O)C[C@@H]1[C@@]3(C)Cc4nc5ccccc5nc4C(C)(C)[C@@H]3CC[C@]12C` has an MIC [2] of 4 µg/mL (≈ 7.12 µM), an MIC [3] of 4 µg/mL (≈ 7.12 µM) and an MIC [4] of 4 µg/mL (≈ 7.12 µM). It also gave an MIC [5] of 8 µg/mL (≈ 14.2 µM), an MIC [6] of 4 µg/mL (≈ 7.12 µM) and an MIC [7] of 4 µg/mL (≈ 7.12 µM). The MIC [8] was greater than 64 µg/mL, the MIC [9] was 4 µg/mL (≈ 7.12 µM) and the MIC [10] was 4 µg/mL (≈ 7.12 µM).
